Assay: xn = mol fraction of the nth substance listed
Details: 101 kPa

CCO + CC(=O)[O-].CC[n+]1ccn(C)c1
x1 = 1
Details	viscosity [mPa·s]
278.15 K	1.582
288.15 K	1.31
298.15 K	1.081
308.15 K	0.899
328.15 K	0.638

CC(=O)[O-].CC[n+]1ccn(C)c1 + CCO
viscosity [mPa·s]
Details	x2 = 0	x2 = 0.1	x2 = 0.201	x2 = 0.2999	x2 = 0.4002	x2 = 0.5001	x2 = 0.6	x2 = 0.7	x2 = 0.8	x2 = 0.9
278.15 K	690	462	–	149.8	86.7	44.6	23.61	12.96	6.55	–
288.15 K	–	–	130.8	81.5	49.1	28.97	16.59	9.3	–	2.751
298.15 K	139	107.7	73.3	49.2	–	–	12.2	7.2	4.145	2.264
308.15 K	77.3	62.8	45.4	–	21.86	14.48	–	5.71	–	1.885
318.15 K	47.4	–	–	–	–	10.91	–	4.64	2.829	–
328.15 K	31.3	26.89	21	15.99	11.82	8.49	5.84	–	2.391	1.355
338.15 K	–	19.14	15.4	12.05	9.18	6.77	4.79	3.218	–	1.165

— a compilation of properties of binary mixtures (doi:10.1021/ie501956x)
